Experimental data as given in ChEMBL document CHEMBL4385613, “Discovery of Conformational Control Inhibitors Switching off the Activated c-KIT and Targeting a Broad Range of Clinically Relevant c-KIT Mutants” (J Med Chem, 2019).
pIC50: −log10 of the molar value. Calls of active or inactive are those of the source. The calls are words filed in the database; no cut-off is given here.

Assays:
GISTT1 [1] = test: Antiproliferative activity against human GISTT1 cells harboring heterozygous V560-Y578 deletion mutant assessed as reduction in cell viability by MTS assay; format: functional
[2] = molecular target: Mast/stem cell growth factor receptor Kit (Homo sapiens, UniProt P10721); test: Inhibition of recombinant human N-terminal 6x-His-tagged c-KIT (547 to 935 residues)/(694 to 753 residues deletion) expressed in baculovirus infected Sf9 insect cells assessed as decrease in poly (Glu,Tyr) 4:1 phosphorylation measured after 150 mins in presence of ATP by ADP-glo based luminescence assay
GISTT1 [3] = test: Antiproliferative activity against human GISTT1 cells harboring heterozygous V560-Y578 del mutation assessed as reduction in cell viability by methylene blue staining based assay; format: functional
GIST882 [4] = test: Antiproliferative activity against human GIST882 cells harboring c-KIT exon 13 homozygous primary K642E mutant assessed as reduction in cell viability by MTS assay; format: functional
GIST882 [5] = test: Antiproliferative activity against human GIST882 cells harboring c-KIT exon 13 homozygous primary K642E mutant assessed as reduction in cell viability by methylene blue staining based assay; format: functional
GIST430 [6] = test: Antiproliferative activity against human GIST430 cells harboring c-KIT exon 11 primary in-frame V560-L576 deletion mutant and exon 13 heterozygous secondary missense V654A mutant assessed as reduction in cell viability by MTS assay; format: functional
GIST430 [7] = test: Antiproliferative activity against human GIST430 cells harboring c-KIT exon 11 primary in-frame V560-L576 deletion mutant and exon 13 heterozygous secondary missense V654A mutant assessed as reduction in cell viability by methylene blue staining based assay; format: functional
GIST48 [8] = test: Antiproliferative activity against human GIST48 cells harboring c-KIT exon 11 homozygous primary missense V560D mutant and exon 17 heterozygous secondary D820A mutant assessed as reduction in cell viability by MTS assay; format: functional
GIST48 [9] = test: Antiproliferative activity against human GIST48 cells harboring c-KIT exon 11 homozygous primary missense V560D mutant and exon 17 heterozygous secondary D820A mutant assessed as reduction in cell viability by methylene blue staining based assay; format: functional
GIST430 [10] = test: (§1) Antitumor activity against human GIST430 cells harboring c-KIT exon 11 primary in-frame V560-L576 deletion mutant and exon 13 heterozygous secondary missense V654A mutant xenografted in NOD-SCID mouse assessed as tumor regression at 40 mg/kg, po administered for 2 weeks with 2 days rest after day 5 and measured thrice per week up to 21 days during compound dosing; format: functional, organism-based
GIST430 [11] = test: as §1, with “growth inhibition” for “regression”; format: functional, organism-based

Row | Structure (SMILES) | pIC50 [2] | GI50 (GISTT1 [1]) [nM] | GI50 (GISTT1 [3]) [nM] | other results
1 | CCN1CCN(c2cc(Nc3ncc(-c4ccc(NS(=O)(=O)c5ccccc5)cc4)s3)nc(C)n2)CC1 | 7.27 | 42 | 42 | 
2 | CCN(CC)CCNC(=O)c1c(C)[nH]c(/C=C2\C(=O)Nc3ccc(F)cc32)c1C [SUNITINIB] |  | 38 | 38 | GI50 (GIST882 [4]): 64 nM; GI50 (GIST882 [5]): 64 nM; GI50 (GIST430 [6]): 47 nM; GI50 (GIST430 [7]): 47 nM; GI50 (GIST48 [8]): 2000 nM; GI50 (GIST48 [9]): 2000 nM; Activity (GIST430 [10]): inactive; TGI (GIST430 [11]): Active
3 | CCc1cc(NC(=O)N2CC=C(c3cnc(Nc4cc(N5CCN(CC)CC5)nc(C)n4)s3)CC2)no1 | 7.09 | 4.9 | 4.9 | 
4 | CCc1cc(NC(=O)NCC#Cc2cnc(Nc3cc(N4CCN(CC)CC4)ncn3)s2)no1 | 7.42 | 9.9 | 9.9 | 
5 | Cc1nc(Nc2ncc(-c3ccc(NC(=O)Nc4ccccc4)cc3)s2)cc(N2CCN(C)CC2)n1 | 7.70 | 5.4 | 5.4 | 
6 | CCN1CCN(c2cc(Nc3ncc(-c4ccc(NC(C)=O)cc4)s3)ncn2)CC1 | 6.89 | 25 | 25 | 
7 | CCN1CCN(c2cc(Nc3ncc(-c4ccc(NC(N)=O)cc4)s3)ncn2)CC1 | 7.01 | 86 | 86 | 

Second part, led by results:

Row | pIC50 [2] | Structure (SMILES) | GI50 (GISTT1 [1]) [nM] | GI50 (GISTT1 [3]) [nM] | other results
8 | 6.02 | CCc1cc(NC(=O)Nc2ccc(-c3csc(Nc4cc(N5CCN(CC)CC5)nc(C)n4)n3)cc2)no1 | > 1000 | > 1000 | 
9 | 6.91 | CCc1cc(NC(=O)Nc2ccc(-c3sc(Nc4cc(N5CCN(CC)CC5)ncn4)nc3C)cc2)no1 | 3.3 | 3.3 | 
10 | 7.01 | CCc1cc(NC(=O)Nc2ccc(-c3cnc(Nc4cc(N5CCN(CC)CC5)nc(C)n4)s3)cc2)no1 | 3.2 | 3.2 | 
11 | 7.07 | CCc1cc(NC(=O)Nc2ccc(-c3cnc(Nc4nc(C)nc(N5CCN(CC)CC5)n4)s3)cc2)no1 | 13 | 13 | 
12 | 7.37 | CCc1cc(NC(=O)Nc2ccc(-c3cnc(Nc4cc(N5CCN(CC)CC5)ncn4)s3)cn2)no1 | 1 | 1 | 
13 | 7.82 | CCc1cc(NC(=O)Nc2ccc(-c3cnc(Nc4cc(N5CCC(N)C5)nc(C)n4)s3)cc2)no1 (configuration not stated) | 6.4 | 6.4 | 
14 | 7.30 | CCc1cc(NC(=O)NCCCc2cnc(Nc3cc(N4CCN(CC)CC4)nc(C)n3)s2)no1 | 10 | 10 | 
15 | 7.15 | CCc1cc(NC(=O)Nc2ccc(-c3cnc(Nc4cc(N5CCN(CCO)CC5)ncn4)s3)cc2)no1 | 3.3 | 3.3 | 
